Test results published in US20220257491A1, “Prebiotic Oral Care Compositions and Methods” (Colgate-Palmolive Company, priority 2021, published 2022).
Marks after values point to notes of the source that are not given here.

What was measured:
Type in all cases: cell-based
F. nucleatum = assay: Multi-species biofilm composition: absolute abundance of F. nucleatum; conditions: mean±SD n=3
Description: (§1) Biofilms are grown vertically on Calcium Deficient Hydroxyapatite (CAD-HA) disks (Hitemco Medical, Old Bethpage, USA) using the Amsterdam Active Adhesion model. Biofilms are allowed to establish during 24 h (37° C., 170 rpm) under micro-aerophilic conditions (6% O2, 7% CO2, 7% H2, 80% N2). After this 24 h, disks are rinsed 3 times a day for 3 minutes (RT, 250 rpm), for 3 consecutive days, by transferring the lid containing the disks to a new 24-well plate containing 2 mL/well of the appropriate substrate solution. As a negative control, PBS (pH 5.7) without substrate supplementation is used. After each rinsing step, disks are shortly dip-rinsed in a new 24-well plate containing fresh modified BHI medium (2 mL/well) to remove remaining substrate traces. Subsequently, the lid is transferred to another 24-well plate containing fresh modified BHI medium (2 mL/well), followed by incubation (micro-aerophilic, 37° C., 170 rpm) until the next rinsing step.
(§2) NADM, N-acetyl-D-glucosamine (“NADG”) and D-(+)-mannose are selected to determine their effects on multi-species biofilm composition. […] decrease in absolute numbers in at least four of the pathogenic bacterial species tested in the assay, compared to the control, the results of which are described in Table 1 below. Absolute abundances of bacterial species are shown as mean±SD (n=3) logarithmic values of the genome equivalents per millilitre (log(Geq/mL)).

P. gingivalis = assay: Multi-species biofilm composition: absolute abundance of P. gingivalis; conditions: mean±SD n=3
Description: as §1, §2

S. oralis = assay: Multi-species biofilm composition: absolute abundance of S. oralis; conditions: for Absolute abundance S. oralis: mean±SD n=3
Description: as §1, §2

[1] = tested on: A. actinomycetemcomitans virulence genes; assay: Multi-species biofilm virulence gene expression, SYBR RT-qPCR: A. actinomycetemcomitans; conditions: for Fold Change in virulence gene expression: aae / Fold Change in virulence gene expression: apaH / Fold Change in virulence gene expression: cdtB / Fold Change in virulence gene expression: emaA / Fold Change in virulence gene expression: flp / Fold Change in virulence gene expression: ltxA / Fold Change in virulence gene expression: omp29 / Fold Change in virulence gene expression: omp100 / Fold Change in virulence gene expression: orf859 / Fold Change in virulence gene expression: pgA / Fold Change in virulence gene expression: vapA / Fold Change in virulence gene expression: vppA: relative to control (=1), 2^-ΔΔCt, geometric mean n=3
Description: as §1
(§3) The expression of 33 virulence genes from 4 periodontal pathogens is analysed to evaluate the relative virulence of the substrate-treated biofilms. For all three substrates, virulence gene expression is determined relatively to the control, and these values are also compared between substrates when this is relevant (Tables 5a-5d).

S. mitis = assay: Multi-species biofilm composition: absolute abundance of S. mitis; conditions: mean±SD n=3
Description: as §1, §2

S. salivarius = assay: Multi-species biofilm composition: absolute abundance of S. salivarius; conditions: mean±SD n=3
Description: as §1
(§4) NADM, N-acetyl-D-glucosamine (“NADG”) and D-(+)-mannose are selected to determine their effects on multi-species biofilm composition. Repeated rinsing of the biofilms with the substrates at a concentration of 1M results in a significant decrease in absolute numbers in at least four of the pathogenic bacterial species tested in the assay, compared to the control, the results of which are described in Table 1 below. Absolute abundances of bacterial species are shown as mean±SD (n=3) logarithmic values of the genome equivalents per millilitre (log(Geq/mL)).

[2] = tested on: human oral keratinocytes (HOK-18A); assay: IL-8 levels in supernatants of keratinocyte cultures exposed to substrate-treated biofilms; conditions: for IL-8 levels in supernatants of HOK-18A cultures: mean±SD n=3
Description: Cultures of immortalized human oral keratinocytes (HOK-18A) are grown. The relative inflammatory potential of the substrate-treated multi-species biofilms is evaluated by analyzing the expression of five inflammatory mediator genes in human oral keratinocytes (HOKs) exposed to the substrate-treated biofilms. […] The IL-8 levels in the cellular supernatant are determined as well. RNA is converted to cDNA and relative expression of inflammatory mediator genes is determined as described above with respect to the cellular housekeeping gene (3-actin.
Table 7: IL-8 levels detected in the supernatants of human oral keratinocytes (HOK-18A) cultures exposed to substrate-treated multi-species biofilms are shown as mean±SD (n=3) values (pg/mL). All substrates are dissolved in PBS at a concentration of 1 M (upper part) or 1% (w/v) (lower part). Values between 0 and 1 represent relative downregulation, values >1 represent relative upregulation. […] For such values, statistically significant differences between two experimental conditions are marked with ‘#1’ (vs. NADM), ‘#2’ (vs. NADG), ‘#3’ (vs. D-(+)-mannose) (P<0.05).

P. intermedia = assay: Multi-species biofilm composition: absolute abundance of P. intermedia; conditions: mean±SD n=3
Description: as §1, §4

S. sanguinis = assay: Multi-species biofilm composition: absolute abundance of S. sanguinis; conditions: mean±SD n=3
Description: as §1, §2

S. gordonii = assay: Multi-species biofilm composition: absolute abundance of S. gordonii; conditions: mean±SD n=3
Description: as §1, §4

[3] = tested on: P. gingivalis virulence genes; assay: Multi-species biofilm virulence gene expression, SYBR RT-qPCR: P. gingivalis; conditions: relative to control, 2^-ΔΔCt, geometric mean n=3
Description: as §1, §3

S. mutans = assay: Multi-species biofilm composition: absolute abundance of S. mutans; conditions: for Absolute abundance S. mutans: mean±SD n=3
Description: as §1, §4

In the case of CC(=O)N[C@@H]1C(O)O[C@H](CO)[C@@H](O)[C@@H]1O (stereo partly drawn) [NADM, N-acetyl-D-mannosamine], the “Absolute abundance Fn (F. nucleatum)” value (F. nucleatum; substrate 1%(w/v) in PBS) is reported as 9.60 ± 0.22 log(Geq/mL), the “Absolute abundance Fn (F. nucleatum)” value (F. nucleatum; substrate 1 M in PBS) is reported as 8.14 ± 0.44 log(Geq/mL) and the “Absolute abundance Pg (P. gingivalis)” value (P. gingivalis; substrate 1%(w/v) in PBS) is reported as 7.06 ± 0.30 log(Geq/mL). For the same molecule, the “Absolute abundance Pg (P. gingivalis)” value (P. gingivalis; substrate 1 M in PBS) was 5.42 ± 0.23 log(Geq/mL), the “Absolute abundance S. oralis” value (S. oralis; substrate 1%(w/v) in PBS) was 7.49 ± 0.30 log(Geq/mL) and the “Change in S. oralis numbers compared to the control” value (S. oralis; substrate 1 M) was “+2.5 log(Geq/mL)”. The “Difference in S. oralis numbers compared to NADG” value (S. oralis; substrate 1 M) was “+1.5 log(Geq/mL)”, the “Absolute abundance S. oralis” value (S. oralis; substrate 1 M in PBS) was 9.46 ± 0.24*^, #2 log(Geq/mL) and the “Fold Change in virulence gene expression: aae” value ([1]; substrate 1% (w/v)) was 0.92 fold. For the same molecule, the “Fold Change in virulence gene expression: apaH” value ([1]; substrate 1% (w/v)) was 0.81 fold, the “Fold Change in virulence gene expression: cdtB” value ([1]; substrate 1% (w/v)) was 0.59 fold and the “Fold Change in virulence gene expression: emaA” value ([1]; substrate 1% (w/v)) was 0.40 fold. The “Fold Change in virulence gene expression: flp” value ([1]; substrate 1% (w/v)) was 0.35 fold, the “Fold Change in virulence gene expression: ltxA” value ([1]; substrate 1% (w/v)) was 0.29 fold and the “Fold Change in virulence gene expression: omp29” value ([1]; substrate 1% (w/v)) was 0.76 fold. The “Fold Change in virulence gene expression: omp100” value ([1]; substrate 1% (w/v)) was 0.42 fold, the “Fold Change in virulence gene expression: orf859” value ([1]; substrate 1% (w/v)) was 0.57 fold and the “Fold Change in virulence gene expression: pgA” value ([1]; substrate 1% (w/v)) was 1.07 fold. The “Fold Change in virulence gene expression: vapA” value ([1]; substrate 1% (w/v)) was 0.82 fold, the “Fold Change in virulence gene expression: vppA” value ([1]; substrate 1% (w/v)) was 1.01 fold and the “A. actinomycetemcomitans gene expression decrease: flp, emaA and omp100” value ([1]; substrate 1%(w/v)) was 2.4- to 2.9 fold. For the same molecule, the “Fold Change in virulence gene expression: aae” value ([1]; substrate 1M) was 0.27 fold, the “Fold Change in virulence gene expression: apaH” value ([1]; substrate 1M) was 0.25 fold and the “Fold Change in virulence gene expression: cdtB” value ([1]; substrate 1M) was 0.31 fold. For the same molecule, the “Fold Change in virulence gene expression: emaA” value ([1]; substrate 1M) was 0.36 fold, the “Fold Change in virulence gene expression: flp” value ([1]; substrate 1M) was 0.85 fold and the “Fold Change in virulence gene expression: ltxA” value ([1]; substrate 1M) was 0.01 fold. For the same molecule, the “Fold Change in virulence gene expression: omp29” value ([1]; substrate 1M) was 0.48 fold, the “Fold Change in virulence gene expression: omp100” value ([1]; substrate 1M) was 0.04 fold and the “Fold Change in virulence gene expression: orf859” value ([1]; substrate 1M) was 0.11 fold. The “Fold Change in virulence gene expression: pgA” value ([1]; substrate 1M) was 3.53 fold, the “Fold Change in virulence gene expression: vapA” value ([1]; substrate 1M) was 0.74 fold and the “Fold Change in virulence gene expression: vppA” value ([1]; substrate 1M) was 0.81 fold. For the same molecule, the “Absolute abundance S. mitis” value (S. mitis; substrate 1%(w/v) in PBS) was “< LOD”, the “Absolute abundance S. mitis” value (S. mitis; substrate 1 M in PBS) was “<LOD” and the “Absolute abundance S. sal. (S. salivarius)” value (S. salivarius; substrate 1%(w/v) in PBS) was 2.90 ± 0.36 log(Geq/mL). For the same molecule, the “Absolute abundance S. sal. (S. salivarius)” value (S. salivarius; substrate 1 M in PBS) was 3.34 ± 0.55 log(Geq/mL), the “IL-8 levels in supernatants of HOK-18A cultures” value ([2]; biofilm rinsed with substrate 1%(w/v)) was 30.32 ± 6.26 pg/mL and the “IL-8 levels in supernatants of HOK-18A cultures” value ([2]; biofilm rinsed with substrate 1M) was 0.59 ± 0.61 pg/mL. For the same molecule, the “Reduced IL-8 levels compared to the control” value ([2]; substrate 1%(w/v)) was 2.4 fold, the “Absolute abundance Pi (P. intermedia)” value (P. intermedia; substrate 1%(w/v) in PBS) was 7.48 ± 0.40 log(Geq/mL) and the “Absolute abundance Pi (P. intermedia)” value (P. intermedia; substrate 1 M in PBS) was 9.07 ± 0.06 log(Geq/mL). For the same molecule, the “Absolute abundance S. sang. (S. sanguinis)” value (S. sanguinis; substrate 1%(w/v) in PBS) was 8.62 ± 0.39 log(Geq/mL), the “Absolute abundance S. sang. (S. sanguinis)” value (S. sanguinis; substrate 1 M in PBS) was 9.10 ± 0.29 log(Geq/mL) and the “Absolute abundance S. gord. (S. gordonii)” value (S. gordonii; substrate 1%(w/v) in PBS) was 8.40 ± 0.10 log(Geq/mL). The “Absolute abundance S. gord. (S. gordonii)” value (S. gordonii; substrate 1 M in PBS) was 8.94 ± 0.32 log(Geq/mL), the “Fold Change in virulence gene expression: fimA” value ([3]; substrate 1%) was 1.07 fold and the “Fold Change in virulence gene expression: kgp” value ([3]; substrate 1%) was 3.46 fold. The “Fold Change in virulence gene expression: partC” value ([3]; substrate 1%) was 0.62 fold, the “Fold Change in virulence gene expression: rgpA” value ([3]; substrate 1%) was 0.88 fold and the “Fold Change in virulence gene expression: fimA” value ([3]; substrate 1M) was 0.50 fold. The “Fold Change in virulence gene expression: kgp” value ([3]; substrate 1M) was 0.82 fold, the “Fold Change in virulence gene expression: partC” value ([3]; substrate 1M) was 0.20 fold and the “Fold Change in virulence gene expression: rgpA” value ([3]; substrate 1M) was 0.43 fold. For the same molecule, the “Decrease in S. mutans vs control” value (S. mutans; substrate 1%(w/v)) was 0.5 log(Geq/mL), the “Absolute abundance S. mutans” value (S. mutans; substrate 1%(w/v) in PBS) was 7.01 ± 0.05 log(Geq/mL) and the “Change in S. mutans numbers compared to the control” value (S. mutans; substrate 1 M) was −1.2 log(Geq/mL). For the same molecule, the “Absolute abundance S. mutans” value (S. mutans; substrate 1 M in PBS) was 7.41 ± 0.44 log(Geq/mL).
